Results taken from US20230241081A1, “Method for Treating Melanoma” (The Regents of the University of Colorado, a body corporate, priority 2020, published 2023).
Residues, ends and D or L forms follow the SMILES beside them. *: point of attachment. Cbz = O=C(OCc1ccccc1)*

Target: T1, PRL-3 (Homo sapiens, UniProt O75365)
T1 construct: endogenous in cells; host or cells: BT-20 cells
Assay: PRL-3 degradation in BT-20 cells
Type: cell-based
Conditions: proteasomal inhibitor with 100 nM compound A, FIG. 6

T1 sequence (O75365 whole entry): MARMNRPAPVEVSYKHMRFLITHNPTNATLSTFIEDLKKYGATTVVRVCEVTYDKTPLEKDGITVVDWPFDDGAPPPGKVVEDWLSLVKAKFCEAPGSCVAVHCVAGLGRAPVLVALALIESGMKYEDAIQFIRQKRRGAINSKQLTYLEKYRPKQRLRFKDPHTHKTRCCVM

With `CC(C)C[C@@H](C=O)NC(=O)[C@H](CC(C)C)NC(=O)[C@H](CC(C)C)NC(=O)OCc1ccccc1` [MG-132] (Cbz-Leu-Leu-Leu-aldehyde) the “effect on compound A-mediated degradation of PRL-3” value was “block compound A-mediated degradation of PRL-3”.
